# Laboratory results published in ChEMBL document CHEMBL1201862, “PubChem BioAssay data set” (2004).
#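 In this assay, cells in 96-well plates receive the compound at five concentrations for 48 hours. Endpoints are linearly interpolated between the surrounding concentrations. GI50 marks 50% less growth.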 The source made the active and inactive calls. Cut-off read from the data, not from the text of the source: active = GI50 up to about 1.1 µM and inactive = higher.
# What was measured:
# Experiment in all cases: inhibition of tumour cell growth, NCI panel, 48 h
# SK-MEL-5 = tested on: SK-MEL-5
# A549 = tested on: A549
# OVCAR-8 = tested on: OVCAR-8
# SNB-19 = tested on: SNB-19
# LOX IMVI = tested on: LOX IMVI
# UO-31 = tested on: UO-31
# OVCAR-4 = tested on: OVCAR-4
# HCT-15 = tested on: HCT-15
# CAKI-1 = tested on: CAKI-1
# SN12C = tested on: SN12C
# RPMI-8226 = tested on: RPMI-8226
# HCC 2998 = tested on: HCC 2998
# M14 = tested on: M14
# SF-295 = tested on: SF-295
# Malme-3M = tested on: Malme-3M
# KM12 = tested on: KM12
# NCI-H226 = tested on: NCI-H226
Compound,GI50 (SK-MEL-5),GI50 (A549),GI50 (OVCAR-8),GI50 (SNB-19),GI50 (LOX IMVI),GI50 (UO-31),GI50 (OVCAR-4),GI50 (HCT-15) [µM],GI50 (CAKI-1),GI50 (SN12C),GI50 (RPMI-8226),GI50 (HCC 2998),GI50 (M14),GI50 (SF-295),GI50 (Malme-3M),GI50 (KM12),GI50 (NCI-H226)
Nc1ncnc2c1ncn2C1OC(CSCc2ccc(Cl)cc2)C(O)C1O (stereo not given),33.8 µM (inactive),43.1 µM (inactive),42.7 µM (inactive),35.9 µM (inactive),37.3 µM (inactive),18.9 µM (inactive),35.6 µM (inactive),12,21.5 µM (inactive),45.7 µM (inactive),21.8 µM (inactive),44.9 µM (inactive),17.1 µM (inactive),50.9 µM (inactive),56.9 µM (inactive),24.2 µM (inactive),
COC(CC1(OC)OC(=O)C=C1N)OC (stereo not given),> 100 µM (inactive),> 100 µM (inactive),> 100 µM (inactive),> 100 µM (inactive),> 100 µM (inactive),> 100 µM (inactive),> 100 µM (inactive),> 100,,> 100 µM (inactive),> 100 µM (inactive),> 100 µM (inactive),> 100 µM (inactive),> 100 µM (inactive),> 100 µM (inactive),> 100 µM (inactive),> 100 µM (inactive)
CC(=O)Nc1ccc(-c2nnc(SCC(=O)Nc3ccccc3C)o2)cc1,93.1 µM (inactive),> 100 µM (inactive),> 100 µM (inactive),,63 µM (inactive),52 µM (inactive),> 100 µM (inactive),80.2,,> 100 µM (inactive),46.3 µM (inactive),,64.9 µM (inactive),89.7 µM (inactive),> 100 µM (inactive),44.7 µM (inactive),> 100 µM (inactive)
CCCCCCC(O)C/C=C/CCCCCC/C(C(=O)OC)=C(/O)C(=O)OCC (stereo not given),> 100 µM (inactive),> 100 µM (inactive),> 100 µM (inactive),> 100 µM (inactive),> 100 µM (inactive),> 100 µM (inactive),> 100 µM (inactive),> 100,> 100 µM (inactive),> 100 µM (inactive),> 100 µM (inactive),> 100 µM (inactive),> 100 µM (inactive),> 100 µM (inactive),> 100 µM (inactive),> 100 µM (inactive),> 100 µM (inactive)
CC1=CC(O)(c2ccc(-c3ccccc3Cl)cc2)OC1=O (stereo not given),> 100 µM (inactive),> 100 µM (inactive),> 100 µM (inactive),> 100 µM (inactive),> 100 µM (inactive),> 100 µM (inactive),> 100 µM (inactive),> 100,> 100 µM (inactive),> 100 µM (inactive),> 100 µM (inactive),> 100 µM (inactive),> 100 µM (inactive),> 100 µM (inactive),> 100 µM (inactive),> 100 µM (inactive),
COC1(C)CNCC(C)(C)NC(=O)C(C)(OC)CNCC(C)(C)NC1=O (stereo not given),> 100 µM (inactive),> 100 µM (inactive),> 100 µM (inactive),> 100 µM (inactive),> 100 µM (inactive),> 100 µM (inactive),> 100 µM (inactive),> 100,> 100 µM (inactive),> 100 µM (inactive),> 100 µM (inactive),> 100 µM (inactive),> 100 µM (inactive),> 100 µM (inactive),> 100 µM (inactive),> 100 µM (inactive),> 100 µM (inactive)
CC(=O)c1ccc(NC(=O)C(=O)C(C(=O)/C=C/c2ccccc2)C2OC(=O)c3ccccc32)cc1 (stereo not given),> 100 µM (inactive),> 100 µM (inactive),> 100 µM (inactive),> 100 µM (inactive),> 100 µM (inactive),> 100 µM (inactive),> 100 µM (inactive),> 100,> 100 µM (inactive),> 100 µM (inactive),54.2 µM (inactive),> 100 µM (inactive),> 100 µM (inactive),> 100 µM (inactive),> 100 µM (inactive),> 100 µM (inactive),> 100 µM (inactive)
Cc1ccc(NC(=O)CCc2n[nH]c(=S)o2)cc1,> 100 µM (inactive),> 100 µM (inactive),> 100 µM (inactive),> 100 µM (inactive),> 100 µM (inactive),> 100 µM (inactive),> 100 µM (inactive),> 100,> 100 µM (inactive),> 100 µM (inactive),,> 100 µM (inactive),> 100 µM (inactive),> 100 µM (inactive),> 100 µM (inactive),> 100 µM (inactive),> 100 µM (inactive)
C=CN1C(=O)[C@H](Oc2ccccc2)[C@@H]1c1ccccc1,31.5 µM (inactive),26.8 µM (inactive),23.8 µM (inactive),33.6 µM (inactive),,36.3 µM (inactive),,41.1,,32.7 µM (inactive),20.3 µM (inactive),47.4 µM (inactive),33.1 µM (inactive),26.1 µM (inactive),63.2 µM (inactive),33 µM (inactive),44.4 µM (inactive)
O=C(c1ccccc1)N1C2C3CC(OCc4ccccc4)(OCc4ccccc4)C(O3)C21 (stereo not given),> 100 µM (inactive),> 100 µM (inactive),> 100 µM (inactive),> 100 µM (inactive),> 100 µM (inactive),> 100 µM (inactive),> 100 µM (inactive),> 100,> 100 µM (inactive),> 100 µM (inactive),54.2 µM (inactive),> 100 µM (inactive),> 100 µM (inactive),,> 100 µM (inactive),,> 100 µM (inactive)
O=C(Nc1nc2ccccc2n1Cc1ccccc1)NC12CC3CC(CC(C3)C1)C2,54.6 µM (inactive),71.9 µM (inactive),> 100 µM (inactive),44.1 µM (inactive),40.3 µM (inactive),> 100 µM (inactive),20.7 µM (inactive),> 100,88.9 µM (inactive),82.8 µM (inactive),> 100 µM (inactive),> 100 µM (inactive),92.5 µM (inactive),13.4 µM (inactive),39.6 µM (inactive),> 100 µM (inactive),51.6 µM (inactive)
O=C1c2ccccc2C(=O)N1C/C=N/NS(=O)(=O)c1cccc([N+](=O)[O-])c1,> 100 µM (inactive),> 100 µM (inactive),> 100 µM (inactive),> 100 µM (inactive),> 100 µM (inactive),> 100 µM (inactive),> 100 µM (inactive),> 100,> 100 µM (inactive),> 100 µM (inactive),> 100 µM (inactive),> 100 µM (inactive),> 100 µM (inactive),> 100 µM (inactive),> 100 µM (inactive),> 100 µM (inactive),
Cn1nc(-c2ccccc2)c(C(=O)/C=C/c2ccc(Cl)cc2)c(N2CCCC2)c1=O,5.46 µM (inactive),4.36 µM (inactive),4.91 µM (inactive),10 µM (inactive),3.8 µM (inactive),8.51 µM (inactive),,3.75,0.55 µM (active),5.94 µM (inactive),2.7 µM (inactive),,5.33 µM (inactive),0.632 µM (active),,,
O=c1cccccc1O.O=c1cccccc1O.O=c1cccccc1O.[SiH4],24.8 µM (inactive),25.6 µM (inactive),11.5 µM (inactive),> 100 µM (inactive),,25.2 µM (inactive),11.9 µM (inactive),,56.2 µM (inactive),25.3 µM (inactive),9.73 µM (inactive),32.4 µM (inactive),33.5 µM (inactive),41.2 µM (inactive),54.6 µM (inactive),26.8 µM (inactive),
CCN(CC)c1ccc(/N=N/c2ccc(-c3nc4cccnc4s3)cc2)cc1,> 100 µM (inactive),88.7 µM (inactive),> 100 µM (inactive),> 100 µM (inactive),,> 100 µM (inactive),43.3 µM (inactive),,> 100 µM (inactive),> 100 µM (inactive),> 100 µM (inactive),> 100 µM (inactive),> 100 µM (inactive),> 100 µM (inactive),> 100 µM (inactive),> 100 µM (inactive),> 100 µM (inactive)
CN(C)CC/C(=N\Nc1ccc(Cl)cc1Cl)c1ccccc1,14.6 µM (inactive),15 µM (inactive),17.7 µM (inactive),16.1 µM (inactive),14.8 µM (inactive),2.37 µM (inactive),> 10 µM (inactive),12.4,,12.6 µM (inactive),3.94 µM (inactive),,15.5 µM (inactive),18.5 µM (inactive),23.3 µM (inactive),16 µM (inactive),
Cn1c(=O)c(C(=O)NC(=O)NCCCCCOC(=O)CCCCCCCCCCC(=O)OCCCCCNC(=O)NC(=O)c2cn(Cc3ccccc3)c(=O)n(C)c2=O)cn(Cc2ccccc2)c1=O,> 100 µM (inactive),> 100 µM (inactive),> 100 µM (inactive),> 100 µM (inactive),> 100 µM (inactive),> 100 µM (inactive),> 100 µM (inactive),> 100,> 100 µM (inactive),> 100 µM (inactive),> 100 µM (inactive),> 100 µM (inactive),> 100 µM (inactive),,> 100 µM (inactive),> 100 µM (inactive),> 100 µM (inactive)
CCC(=O)c1c(NOC2OC(COC(C)=O)C(OC(C)=O)C(OC(C)=O)C2OC(C)=O)nc(OC)n(C)c1=O (stereo not given),> 100 µM (inactive),> 100 µM (inactive),> 100 µM (inactive),> 100 µM (inactive),> 100 µM (inactive),,> 100 µM (inactive),> 100,,> 100 µM (inactive),,> 100 µM (inactive),> 100 µM (inactive),> 100 µM (inactive),,> 100 µM (inactive),50.1 µM (inactive)
